Measured values taken from US20180117053A1, “The Method of Use for Inhibitors of Epidermal Growth Factor Receptor Variants II, III and VI” (Metastat, Inc., priority 2015, published 2018).
pEC50: −log10 of the molar value.

Assays:
EGFR-viii = biological target: T1, EGFR-viii (Homo sapiens, UniProt P00533, DELINS30-297G); assay: PhosphoY1173-EGFR-viii in-cell ELISA in U87MG tumor cells engineered to express EGFR-viii; assay type: cell-based; settings: U87MG tumor cells expressing EGFR-viii; for activity against EGFR-viii: in words
T1 construct: expressed in transfected cells; host or cells: U87MG (ATCC), lentiviral infection, puromycin selection
Method: Data are expressed as EC50 and were determined using an in-cell ELISA kit (Pierce).

[1] = tested on: tumors expressing EGFR-viii; settings: clinical studies (Vivanco 2012, Reardon 2014); cited from earlier work

Row | activity against EGFR-viii (EGFR-viii; in-cell ELISA) | SMILES | also measured
1 | weak activity | C=CC(=O)Nc1cccc(Sc2nc(Nc3ccc(N4CCN(C)CC4)cc3)ncc2Cl)c1 [WZ8040] | –
2 | – | CS(=O)(=O)CCNCc1ccc(-c2ccc3ncnc(Nc4ccc(OCc5cccc(F)c5)c(Cl)c4)c3c2)o1 [Lapatinib, lapatinib] | cancer growth inhibition in clinical studies [1]: insignificant cancer growth inhibition
3 | weak activity | C=CC(=O)Nc1cccc(Nc2nc(Nc3ccc(N4CCN(C(C)=O)CC4)cc3OC)ncc2C(F)(F)F)c1 [CO-1686] | –
4 | – | C=CC(=O)Nc1ccc2ncnc(Nc3ccc(OCc4cccc(F)c4)c(Cl)c3)c2c1 [AST-1306] | potency against EGFR-viii relative to WZ4002, WZ8040, WZ3146, CO-1686 and AZD9291 (EGFR-viii): at least ten-fold more potent; pEC50 (EGFR-viii; in-cell ELISA, read-out: EC50 against EGFR-viii (phosphoY1173-EGFRviii)): > 7.30

Row | SMILES | activity against EGFR-viii (EGFR-viii; in-cell ELISA) | also measured
5 | C=CC(=O)Nc1cccc(Oc2nc(Nc3ccc(N4CCN(C)CC4)cc3)ncc2Cl)c1 [WZ3146] | weak activity | –
